# Experimental data reported in the SangsterLogP compilation.
row,SMILES,logP
1,CN1CC(O)N(C(=O)NC2CCCCCC2)C1=O (stereo unspecified),2.29
2,CN1CC(O)N(C(=O)NC(C)(C)C)C1=O (stereo unspecified),1.38
3,CN1CC(O)N(C(=O)Nc2ccccc2)C1=O (stereo unspecified),1.44
4,CN1CC(O)N(C(=O)NC2CCCC2)C1=O (stereo unspecified),1.47
5,CC1CCC(NC(=O)N2C(=O)N(C)CC2O)CC1 (stereo unspecified),2.41
6,CN1CC(O)N(C(=O)NC2CCCCC2)C1=O (stereo unspecified),1.87
7,CC1CCCCC1NC(=O)N1C(=O)N(C)CC1O (stereo unspecified),2.2

# Further lines, results first:
row,logP,SMILES
1,0.71,CN1CC(O)N(C(=O)NCCCl)C1=O (stereo unspecified)
2,1.32,CC(C)CNC(=O)N1C(=O)N(C)CC1O (stereo unspecified)
3,0.96,CC(C)NC(=O)N1C(=O)N(C)CC1O (stereo unspecified)
4,1.28,CCC(C)NC(=O)N1C(=O)N(C)CC1O (stereo unspecified)
5,1.75,CCCCCNC(=O)N1C(=O)N(C)CC1O (stereo unspecified)
6,3.46,CCCCCCCCNC(=O)N1C(=O)N(C)CC1O (stereo unspecified)
7,2.39,CCCCCCNC(=O)N1C(=O)N(C)CC1O (stereo unspecified)
8,1.38,CCCCNC(=O)N1C(=O)N(C)CC1O (stereo unspecified)
9,0.99,CCCNC(=O)N1C(=O)N(C)CC1O (stereo unspecified)
